From ChEMBL document CHEMBL1126393, “Design, synthesis and activity against human cytomegalovirus of non-phosphorylatable analogs of toyocamycin, sangivamycin and thiosangivamycin” (Bioorg Med Chem Lett, 1992)

What was measured:
[1] = Cytotoxicity of compound in uninfected cells determined by examining the effect on growth of KBcells; assay type: functional, Homo sapiens
[2] = tested on: HFF; test: In vitro inhibition of human cytomegalovirus in HFF cells by plaque reduction assay.; assay type: functional, cell-based
[3] = tested on: HFF; test: Visual cytotoxicity of compound in uninfected cells determined by examining the effect on growth of HFF cells; assay type: functional, Homo sapiens
[4] = tested on: HFF; test: Cytotoxicity of compound in uninfected cells determined by examining the effect on growth of HFF cells; assay type: functional, Homo sapiens
[5] = Selectivity index is the ratio of CC50 to IC50; assay type: functional

Structure (SMILES)	Cytotoxicity [1] [µM]	IC50 [2] [µM]	Cytotoxicity [3] [µM]	Cytotoxicity [4] [µM]	SI [5]
Cn1cc(C(N)=O)c2c(N)ncnc21	>100	> 100			
CCCn1cc(C(N)=O)c2c(N)ncnc21	90	> 100			
N#Cc1cn(COC(CO)CO)c2ncnc(N)c12		> 100	>100		
NC(=O)c1cn(COCCO)c2ncnc(N)c12		> 100		>100	
C=CCn1cc(C#N)c2c(N)ncnc21	>100	> 100			
NC(=S)c1cn(COC(CO)CO)c2ncnc(N)c12		6.2		>100	
C=CCn1cc(C(N)=O)c2c(N)ncnc21	90	> 100			
Nc1nc2c(ncn2COC(CO)CO)c(=O)[nH]1 [GANCICLOVIR]	>100	8.4			
C=CCn1cc(C(N)=S)c2c(N)ncnc21	19	2.1			9
N#Cc1cn(COCCO)c2ncnc(N)c12		> 100	>100		
NC(=O)c1cn(COC(CO)CO)c2ncnc(N)c12		> 100		>100	
Cn1cc(C#N)c2c(N)ncnc21	>100	> 100			
Cn1cc(C(=N)S)c2c(N)ncnc21	14.7	1.2			12
CCCn1cc(C#N)c2c(N)ncnc21	>100	36			
CCCn1cc(C(=N)S)c2c(N)ncnc21	17	1.2			14
NC(=S)c1cn(COCCO)c2ncnc(N)c12	115	8.8			13
